Results reported in PubChem BioAssay (NCI).
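1) Cells in 96-well plates. 2) Compound, 48 h, 5 concentrations. 3) Linear interpolation between surrounding doses. 4) Unreached endpoint = highest concentration. GI50 is the concentration that inhibits growth by half. TGI is the concentration that stops growth completely.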

What was measured:
Test in all cases: growth of human tumour cells (NCI), 48 h
SF-295 CNS = system: SF-295 CNS
RPMI-8226 leukemia = system: RPMI-8226 leukemia
CCRF-CEM leukemia = system: CCRF-CEM leukemia
OVCAR-8 ovarian = system: OVCAR-8 ovarian
SF-539 CNS = system: SF-539 CNS
COLO 205 colon = system: COLO 205 colon
M14 melanoma = system: M14 melanoma
HCC-2998 colon = system: HCC-2998 colon
786-0 renal = system: 786-0 renal
SK-MEL-5 melanoma = system: SK-MEL-5 melanoma
MALME-3M melanoma = system: MALME-3M melanoma
SN12C renal = system: SN12C renal
SNB-75 CNS = system: SNB-75 CNS
SK-MEL-28 melanoma = system: SK-MEL-28 melanoma
DLD-1 colon = system: DLD-1 colon
LXFL 529 NSCLC = system: LXFL 529 NSCLC
OVCAR-4 ovarian = system: OVCAR-4 ovarian
HL-60(TB) leukemia = system: HL-60(TB) leukemia
SNB-19 CNS = system: SNB-19 CNS
SNB-78 CNS = system: SNB-78 CNS
HOP-92 NSCLC = system: HOP-92 NSCLC
NCI-H522 lung = system: NCI-H522 lung
A549 NSCLC = system: A549 NSCLC
OVCAR-3 ovarian = system: OVCAR-3 ovarian
HOP-62 NSCLC = system: HOP-62 NSCLC
TK-10 renal = system: TK-10 renal
OVCAR-5 ovarian = system: OVCAR-5 ovarian
M19-MEL melanoma = system: M19-MEL melanoma
IGROV1 ovarian = system: IGROV1 ovarian
SW-620 colon = system: SW-620 colon
HT29 colon = system: HT29 colon
MOLT-4 leukemia = system: MOLT-4 leukemia
UO-31 renal = system: UO-31 renal
KM20L2 colon = system: KM20L2 colon
K-562 leukemia = system: K-562 leukemia
HCT-15 colon = system: HCT-15 colon
A498 renal = system: A498 renal
KM12 colon = system: KM12 colon
NCI-H23 lung = system: NCI-H23 lung
LOX IMVI melanoma = system: LOX IMVI melanoma
UACC-257 melanoma = system: UACC-257 melanoma
SK-MEL-2 melanoma = system: SK-MEL-2 melanoma
NCI-H460 lung = system: NCI-H460 lung
EKVX NSCLC = system: EKVX NSCLC
HCT-116 colon = system: HCT-116 colon
SK-OV-3 ovarian = system: SK-OV-3 ovarian
DMS 114 small cell lung = system: DMS 114 small cell lung
UACC-62 melanoma = system: UACC-62 melanoma
ACHN renal = system: ACHN renal
SF-268 CNS = system: SF-268 CNS
U251 CNS = system: U251 CNS

Work on `NCCN.O=C([O-])C(=O)[O-].O=C([O-])C(=O)[O-].[Co+3].[K+]` yielded a GI50 (SF-295 CNS) of over 100 µM, a TGI (SF-295 CNS) of over 100 µM and a GI50 (RPMI-8226 leukemia) of over 100 µM. For the same compound, the TGI (RPMI-8226 leukemia) was over 100 µM, the GI50 (CCRF-CEM leukemia) was over 100 µM and the TGI (CCRF-CEM leukemia) was over 100 µM. The GI50 (OVCAR-8 ovarian) was over 100 µM, the TGI (OVCAR-8 ovarian) was over 100 µM and the GI50 (SF-539 CNS) was over 100 µM. The TGI (SF-539 CNS) was over 100 µM, the GI50 (COLO 205 colon) was over 100 µM and the TGI (COLO 205 colon) was over 100 µM. The GI50 (M14 melanoma) was over 100 µM, the TGI (M14 melanoma) was over 100 µM and the GI50 (HCC-2998 colon) was over 100 µM. For the same compound, the TGI (HCC-2998 colon) was over 100 µM, the GI50 (786-0 renal) was over 100 µM and the TGI (786-0 renal) was over 100 µM. For the same compound, the GI50 (SK-MEL-5 melanoma) was over 100 µM, the TGI (SK-MEL-5 melanoma) was over 100 µM and the GI50 (MALME-3M melanoma) was over 100 µM. The TGI (MALME-3M melanoma) was over 100 µM, the GI50 (SN12C renal) was over 100 µM and the TGI (SN12C renal) was over 100 µM. It also gave a GI50 (SNB-75 CNS) of over 100 µM, a TGI (SNB-75 CNS) of over 100 µM and a GI50 (SK-MEL-28 melanoma) of over 100 µM. It also gave a TGI (SK-MEL-28 melanoma) of over 100 µM, a GI50 (DLD-1 colon) of over 100 µM and a TGI (DLD-1 colon) of over 100 µM. It also gave a GI50 (LXFL 529 NSCLC) of over 100 µM, a TGI (LXFL 529 NSCLC) of over 100 µM and a GI50 (OVCAR-4 ovarian) of over 100 µM. It also gave a TGI (OVCAR-4 ovarian) of over 100 µM, a GI50 (HL-60(TB) leukemia) of over 100 µM and a TGI (HL-60(TB) leukemia) of over 100 µM. It also gave a GI50 (SNB-19 CNS) of over 100 µM, a TGI (SNB-19 CNS) of over 100 µM and a GI50 (SNB-78 CNS) of over 100 µM. For the same compound, the TGI (SNB-78 CNS) was over 100 µM, the GI50 (HOP-92 NSCLC) was over 100 µM and the TGI (HOP-92 NSCLC) was over 100 µM. For the same compound, the GI50 (NCI-H522 lung) was 92.4 µM, the TGI (NCI-H522 lung) was over 100 µM and the GI50 (A549 NSCLC) was over 100 µM. It also gave a TGI (A549 NSCLC) of over 100 µM, a GI50 (OVCAR-3 ovarian) of over 100 µM and a TGI (OVCAR-3 ovarian) of over 100 µM. The GI50 (HOP-62 NSCLC) was over 100 µM, the TGI (HOP-62 NSCLC) was over 100 µM and the GI50 (TK-10 renal) was over 100 µM. The TGI (TK-10 renal) was over 100 µM, the GI50 (OVCAR-5 ovarian) was over 100 µM and the TGI (OVCAR-5 ovarian) was over 100 µM. For the same compound, the GI50 (M19-MEL melanoma) was over 100 µM, the TGI (M19-MEL melanoma) was over 100 µM and the GI50 (IGROV1 ovarian) was over 100 µM. It also gave a TGI (IGROV1 ovarian) of over 100 µM, a GI50 (SW-620 colon) of over 100 µM and a TGI (SW-620 colon) of over 100 µM. It also gave a GI50 (HT29 colon) of over 100 µM, a TGI (HT29 colon) of over 100 µM and a GI50 (MOLT-4 leukemia) of over 100 µM. The TGI (MOLT-4 leukemia) was over 100 µM, the GI50 (UO-31 renal) was over 100 µM and the TGI (UO-31 renal) was over 100 µM. For the same compound, the GI50 (KM20L2 colon) was over 100 µM, the TGI (KM20L2 colon) was over 100 µM and the GI50 (K-562 leukemia) was over 100 µM. The TGI (K-562 leukemia) was over 100 µM, the GI50 (HCT-15 colon) was over 100 µM and the TGI (HCT-15 colon) was over 100 µM. It also gave a GI50 (A498 renal) of over 100 µM, a TGI (A498 renal) of over 100 µM and a GI50 (KM12 colon) of over 100 µM. For the same compound, the TGI (KM12 colon) was over 100 µM, the GI50 (NCI-H23 lung) was over 100 µM and the TGI (NCI-H23 lung) was over 100 µM. It also gave a GI50 (LOX IMVI melanoma) of over 100 µM, a TGI (LOX IMVI melanoma) of over 100 µM and a GI50 (UACC-257 melanoma) of over 100 µM. The TGI (UACC-257 melanoma) was over 100 µM, the GI50 (SK-MEL-2 melanoma) was over 100 µM and the TGI (SK-MEL-2 melanoma) was over 100 µM. For the same compound, the GI50 (NCI-H460 lung) was over 100 µM, the TGI (NCI-H460 lung) was over 100 µM and the GI50 (EKVX NSCLC) was over 100 µM. The TGI (EKVX NSCLC) was over 100 µM, the GI50 (HCT-116 colon) was over 100 µM and the TGI (HCT-116 colon) was over 100 µM. The GI50 (SK-OV-3 ovarian) was over 100 µM, the TGI (SK-OV-3 ovarian) was over 100 µM and the GI50 (DMS 114 small cell lung) was over 100 µM. It also gave a TGI (DMS 114 small cell lung) of over 100 µM, a GI50 (UACC-62 melanoma) of over 100 µM and a TGI (UACC-62 melanoma) of over 100 µM. The GI50 (ACHN renal) was over 100 µM, the TGI (ACHN renal) was over 100 µM and the GI50 (SF-268 CNS) was over 100 µM. The TGI (SF-268 CNS) was over 100 µM, the GI50 (U251 CNS) was over 100 µM and the TGI (U251 CNS) was over 100 µM.
